“Also recorded” adds a separate entry of the source. Structures can show the parent of a compound that is named as a salt.
Experiments:
[1] = Solubility/fluorescence in various solvents (Tables I, II); assay type: physicochemical
Method: In addition, tests were conducted on the product in order to determine its solubility/fluorescence in various solvents. One property of the compositions described herein involves a variable degree of solubility/fluorescence relative to the solvents with which they are combined. Data showing a variety of different solvents combined with the product of Example I is presented below in Table I:
As in Example I, tests were conducted on the product in Example II in order to determine its fluorescence in various solvents. Data showing a variety of different solvents combined with the product of Example II is presented below in Table II: […]

[2] = Laser characteristics of pyrromethene-BF2 complexes under flashlamp excitation (Table IV); settings: DMA/MeOH
[3] = P-BF2 dyes dispersed in acrylic co-polymer (solid-state laser)
Excerpt: Any laser dye of the present invention may be substituted for the dye in any of the examples of that incorporated patent. The matrix generally includes solid polymeric host laser rods prepared using bulk polymerization of acrylic acid ester comonomers.

[4] = Triplet-triplet (T--T) absorption; assay type: physicochemical; settings: fluorescent spectral area
Method: The T--T absorption spectrum was recorded at 77K, employing a 1×10^-4 molar solution of 2-methyltetrahydrofuran as solvent.

breast tumors = experiment: Photodynamic therapy of DMBA-induced breast tumors, intratumor injection (Table VIII); assay type: in vivo, female Sprague Dawley rats; settings: for COMPLETE RESPONSE (ANIMALS) / FINAL TOTAL TUMOR NO. / FINAL MEAN TUMOR VOLUME: four weeks
Method: Breast tumors were induced in fifty-day-old female Sprague Dawley rats by the oral feeding of dimethylbenzanthracene (DMBA) in peanut oil. Individual rats were fed 10 mg DMBA per 100 g body weight via gavage tubes. Palpable tumors developed 45 to 92 days after feeding. […] Following tumor development, tumors were measured and injected with PMPDS-BF2 dissolved in saline ([…] was injected into the center of the tumors to a concentration of 20 μg/cm^3 of tumor volume. Twenty-four hours after intratumor injection, the rats were anesthetized using phenobarbital (2 mg/kg i.p.) and the injected tumors were exposed to light from either a quartz lamp (100 or 250 w) or an argon laser (with 488/514 and 628 nm frequencies) for 10-20 minutes. Also included in this experiment were three control groups: (1) saline injected, unirradiated tumors; (2) saline injected, irradiated tumors; (3) PMPDS-BF2 injected, and unirradiated tumors.

[5] = test system: human ovarian tumor cells; experiment: Photodynamic growth inhibition of human ovarian cancer cells in vitro (soft agar); assay type: cell-based
Method: 1,3,5,7,8-pentamethylpyrromethene-boron difluoride-2,6-disodium disulfonate salt (PMPDS-BF2) and bimane diphosphonate were prepared according to previously described methods.
Human ovarian cells from fifteen individual patients were evaluated. All cancers were epithelial originating ovarian adenocarcinomas. Each cancer had been passed through at least one culture in RPMI-1640 (10% FBA) medium prior to use in the present study. In each case cells were harvested and washed in RPMI-1640 medium and resuspended in concentrations of 2.6×10^6 cells/ml at 5° C. The cells (2.6×10^6 cells/ml) were then incubated in a RPMI-1640 growth medium (containing 10% fetal bovine […], penicillin 100 U/ml and streptomycin 100 μg/ml) pH, 7.4 with graded doses of PMPDS-BF2 complex for 30 minutes at 37° C. in a 5% CO2 /air incubator with gentle shaking. The three concentrations of PMPDS-BF2 evaluated in this study were 0.004 μg, 0.04 μg, and 0.4 μg/ml of medium. The cell suspension was then washed with cold RPMI-1640 medium to remove extracellular PMPDS-BF2 complex, and then the cells were resuspended in fresh RPMI growth medium. Fifteen (15) ml portions of the cell suspensions (2.6×10^6 cells/ml) were irradiated in glass tubes at 37° C. in room air over a 10-20 minute period using a General Electric sun lamp. Controls were cells exposed to PMPDS-BF2 with no light exposure, cells with light exposure alone and cells with neither exposure to light nor chemicals.
Under identical conditions as above, bimane diphosphonate was evaluated for cytotoxic activities in the presence and absence of light. After the above incubations with PMPDS-BF2 or bimanes±light as controls, melted Bacto-agar (Difco Laboratories, Inc., Detroit, Mich.) was added to the cell suspensions to a final concentration of 0.3% agar. The mixtures were plated in 35 mm plastic tissue culture dishes on a feeder layer containing an enriched McCoy's 5A medium and 0.5% agar with the addition of 2-mercaptoethanol (5 mM) and DEAE-dextran. The seeding density for the cells in this study was kept between 1-5×10^4 cells per dish and the plates incubated at 37° C. in a CO2 incubator. Incubation was continued for another 2-3 weeks and the plates examined under an inverted phase contrast microscope and cells counted. Since these cells grow as tight aggregates in soft-agar, it was impossible to determine the number of cells in each growth. Instead, an ocular micrometer was used to count colonies 30 μm or larger in size. Plating efficiency, defined as the number of colonies formed per 100 viable cells plated, was compared between groups.

CC1=C(S(=O)(=O)O)C(C)=[N+]2C1=C(C)c1c(C)c(S(=O)(=O)O)c(C)n1[B-]2(F)F [PMPDS-BF2, Disodium salt of 4,4-difluoro-1,3,5,7,8-pentamethyl-4-bora-3a,4a-diaza-s-indacene-2,6-disulfonic acid monohydrate]
Solubility ([1]; (CF3)2 CHOH): Insoluble | Solubility ([1]; CH2 Cl2): Insoluble | Solubility ([1]; CH3 CO2 C2 H5): Insoluble | Solubility ([1]; H2 O): Soluble | Solubility ([1]; O(CH2 CH2)2 O): Insoluble | Life [2]: very long | solubility in the polymer matrix [3]: particularly soluble | T--T absorption [4]: barely detectable | T--T absorption ε.tau. [4]: ~ 3×10^-3 | COMPLETE RESPONSE (ANIMALS) (breast tumors; 20 ug/cm^3, no light): 2/10 | FINAL TOTAL TUMOR NO. (breast tumors; 20 ug/cm^3, no light, initial 12): 13 | FINAL MEAN TUMOR VOLUME (breast tumors; 20 ug/cm^3 intratumor plus light (quartz lamp 100 watt, 20 min), initial 0.3): 0.1 cm^3 | FINAL MEAN TUMOR VOLUME (breast tumors; 20 ug/cm^3 intratumor, no light, initial 0.2): 0.7 cm^3 | COMPLETE RESPONSE (ANIMALS) (breast tumors; 20 ug/cm^3 plus light): 7/10 | FINAL TOTAL TUMOR NO. (breast tumors; 20 ug/cm^3 plus light, initial 14): 3 | tumor necrosis (breast tumors; injected and irradiated): Tumor necrosis was observed | tumor remission (breast tumors; injected and irradiated): 50-100% | necrosis or remission (breast tumors; injected, not irradiated): no necrosis or remission | inhibition in cell growth ([5]; 0.004 μg/ml plus light): 40-70% | cell morphology ([5]; 0.004 μg/ml plus light, within 48 hours): pyknotic changes with nuclear fragmentation | colonization / morphology of cells ([5]; 0.04 μg/ml plus light, three days post exposure): unable to colonize, demonstrated pyknotic changes in the nucleus and cytoplasmic discoloration | inhibition of cell growth ([5]; 0.4 μg/ml plus light): 100% | cytotoxic response without light ([5]; absence of light exposure, monohydrate): did not demonstrate significant cytotoxic responses; also recorded: did not produce cytotoxicities

Source: patent publication US5446157A, “Boron difluoride compounds useful in photodynamic therapy and production of laser light” (priority 1993, dated 1995)
